Test results taken from patent US5594144A, “Tropolone derivatives and pharmaceutical composition thereof for preventing and treating ischemic diseases” (The Upjohn Company, priority 1990, dated 1997).

Key:
[1] = test system: Mouse Cerebral Ischemia/Reperfusion; assay: in vivo Behavior test (Mouse Cerebral Ischemia/Reperfusion Test); set-up: species or system mouse (ICR strain, male); details: ip
Method: Bilateral common carotid arteries of both sides of ICR strain male mice (about 8 weeks old) were occluded for 5 minutes while lightly anesthetized, then blood was reperfuged. The test compounds were intraperitoneally administered 10 minutes before occlusion and within 3 hours after reperfusion. Since a day after reperfusion, behavior disorder was evaluated by spontaneous motor activity of exploratory behavior, traction test and passive avoidance test. That is, spontaneous motor activity was evaluated as follows. Motor activity was measured by tilting cage method for 30 minutes since immediately after a mouse was placed in a measurement cage. If the motor activity was at least more than (average of spontaneous motion of the group received solvent) +2×SD, the compound was evaluated as "active." In traction test, both fore limbs of the mouse were placed on the horizontally stretched wire. If the mouse put its hind limb within 2 seconds, the compound was estimated as "active.". In passive avoidance test, a step-through type apparatus was used, and as acquisition trial of blood reperfusion, electrical shock (about 0.5 mA, 3 seconds) was given to the mice as soon as the whole body of mice entered the black room and on the next day test trial was carried out. The mouse which stayed in a light room for at least 300 seconds was estimated as an active example. In all tests, the test compound which provided at least 50% of active animals was determined as "active." The results are shown in Table 5.

[2] = test system: Brain microsomal fractions; assay: in vitro Anti-lipid peroxidation effect (TBAR production, Fe3+-ADP/NADPH); assay type: biochemical, rat (SD strain, male)
Summary of the method: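 Male SD rat brain microsomes (0.2 mg protein) incubated 15 min at 37 °C with Fe3+ (0.1 mM)-ADP (0.5 mM) and 0.2 mM NADPH in HEPES/KCl pH 7.4, with or without compound. TBAR measured at 535 nm after TCA-TBA-HCl boiling; inhibition of TBAR production reported.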

cerebral blood flow = assay: Normal cerebral flow stream test; assay type: in vivo; details: Rattus norvegicus, iv; urethane anesthetized; laser Doppler; read-out: active dose (increase in cerebral blood flow)
Method: 6. Normal cerebral flow stream test
Experiment was carried out using rats anesthetized with urethane. After a cannulas for blood pressure monitoring and that for drug administration were inserted into femoral artery and vein, respectively. Temporal bone was cut away on a brain stereotaxis apparatus and a probe for measurement of cerebral blood flow was placed on dura mater. The cerebral blood flow was measured using a laser Dopplar blood flow meter. Firstly, a solvent of the test compound was administered intravenously and then three doses of the compound were administered in order of dose every fifteen-minute intervals. When an average of increase in cerebral blood flow due to the test compound minus 2×SE was larger than that of change in cerebral blood flow due to the solvent, the dose was estimated as "active". The compound (1B) was active in the dose of not less than 3 mg/kg i.v.

[3] = test system: pig right coronary artery; assay: in vitro Ca-antagonism (high K+ induced 45Ca-influx); assay type: cell-based; details: Sus scrofa, K+ 75 mM
Summary of the method: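 Pig right coronary artery strips depolarized with 75 mM K^+ for 30 minutes in presence of compound at 10^-7, 10^-6, 10^-5 M. Extracellular ^45Ca chelated with EGTA and washed off; intracellular ^45Ca counted by scintillation after lysis at 100° C, giving % inhibition of K^+-induced uptake.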

[4] = test system: KCN-induced respiratory arrest; assay: in vivo Anti-anoxia effect (KCN lethal dose); set-up: species or system mouse (ICR strain, male); details: Mus musculus, po; * methansulfonate; KCN 3.0 mg/kg
Method: 7. in vivo Anti-anoxia effect
A group (5 mice) of ICR strain male mice (about 8-week-old) were used. One or two hours after the test compounds were orally administered, a lethal dose (3.0 mg/kg) of KCN was administered into tail vein. A period of time to respiratory arrest and a survival rate were measured. The test compound which provided at least 50% of active example was determined as "active".

ventricular arrhythmia = assay: in vivo Ischemic heart/reperfusion test; details: Rattus norvegicus, iv; read-out: Minimal Effective Dose (mg/kg, i.v.)
Method: 4. in vivo Ischemic heart/reperfusion test
Experiment was carried out using rats anesthetized with pentobarbital under artificial respiration. After the forth rib was excised, heart was exposed by thoracotomy, and the thread was placed under the left coronary artery at it origin. Then, the heart was returned and a thread was passed in a tube. Compounds were applied through tail vein. After 10 minutes, the thread in the tube was pulled to occlude coronary artery. Five minutes after occlusion, the thread was loosened again for reperfusion. Then, ventricular arrhythmia was recorded on electrocardiogram (lead II), by sticking needle electrodes into a right fore-limb and a left hind-limb. Duration time of ventricular tachycardia and occurrence of ventricular fibrillation caused after reperfusion were compared between a group receiving the test compounds and a similarly treated vehicle group. If either of two parameters of the group that received the test compound became less than half of that of the group that received the vehicle, the test compound was estimated as "active".

porcine coronary artery = assay: in vitro Coronary vasodilation effect (PGF2α-contracted strip); assay type: cell-based; details: Sus scrofa; 25% of papaverine-induced relaxation; read-out: Coronary Vasodilation (ED25 μM)
Method: 3. in vitro Coronary vasodilation effect
The right portion of a porcine coronary artery was isolated, and cut into 3 mm wide strip which was suspended in a organ bath filled with 20 ml of Krebs--Henseleit solution (37° C.). During the experiment the bath solution was aerated with 95% O2 +5% Co2. The change in tension was measured using an isometric transducer. After load tension was stabilized, the preparation was contracted with PGF2α (10^-6 -[…]). After the contract level had stabilized the test compound was cumulatively applied from 10^-8 to 10^-5 M. Papaverine (10^-4 M) was used to obtain maximal relaxation at the end of the experiment. The result was expressed as the percentage of papverine-induced relaxation, and the concentration of the test compound which gave 25% relaxation of papaverine-induced relaxation was defined as ED25. The compound with low ED25 value has great coronary vasodilation effect.

| Structure (SMILES) | minimal effective dose [1] [mg/kg] | Anti-Lipid Peroxidation (% inhibition) 10 μM [2] [%] | Anti-Lipid Peroxidation (% inhibition) 50 μM [2] [%] | minimal effective dose (cerebral blood flow) [mg/kg] | inhibition at 10 µM [3] [%] | minimal effective dose [4] [mg/kg] | minimal effective dose ([1]; route cell empty (method: intraperitoneally)) [mg/kg] | minimal effective dose (ventricular arrhythmia) [mg/kg] | EC25 (porcine coronary artery) [µM] |
| --- | --- | --- | --- | --- | --- | --- | --- | --- | --- |
| COc1cc(C(C)C)ccc(C2Sc3ccccc3N2CCc2ccccc2)c1=O (centres unmarked) [Compound 1B, 2-(2'-oxo-3'-methoxy-5'-isopropyl-3',5',7'-cycloheptatrienyl)-3-phenethylbenzothiazoline] | 0.1 | 91.8 | 93.1 | ≥ 3 |  |  |  |  |  |
| CC(C)c1ccc(CN2CCN(C(c3ccc(F)cc3)c3ccc(F)cc3)CC2)c(=O)c(NCCN(C)C)c1 [Compound 1C, 7-[4-(4,4'-difluorobenzhydryl)piperazino-1-methyl]-2-(N-2-dimethylaminoethylamino)-4-isopropyl-2,4,6-cycloheptatrien-1-one] |  | 59.4 | 95.3 |  | 81 | 100 |  |  |  |
| COc1cc(C(C)C)ccc(CN2CCN(C(c3ccc(F)cc3)c3ccc(F)cc3)CC2)c1=O [Compound 7A, 7-[4-(4,4'-difluorobenzhydryl)piperazino-1-methyl]-4-isopropyl-2-methoxy-2,4,6-cycloheptatrien-1-one] |  | 27.2 | 59.2 |  | 100 |  | < 10 | < 5 | 1.9 |
